Laboratory results taken from publication PMC3447335, “Evaluation of Pseudopteroxazole and Pseudopterosin Derivatives against Mycobacterium tuberculosis and Other Pathogens” (Marine Drugs, 2012).
Values after ≈ are worked out from the molar mass of the structure shown. Read-outs that look alike come from different tables or passages of the source.

Legend:
VRE = experiment: Microbroth dilution antibiotic susceptibility assay; assay type: cell-based, Enterococcus faecium; conditions: Enterococcus, read-out: IC50 VRE
[1] = system: M. diernhoferi (ATCC 19340); experiment: as above; assay type: cell-based; conditions: Mycolicibacterium diernhoferi
MRSA = experiment: as above; assay type: cell-based; conditions: Staphylococcus aureus, read-out: IC50 MRSA
[2] = system: M. tuberculosis H37Rv (ATCC 27294); experiment: microbe, parasite or virus in culture; assay type: cell-based, Mycobacterium tuberculosis; conditions: for inhibition at 64 µg/mL / MIC: Mycobacterium tuberculosis; for inhibition at 64 µg/mL: % inhibition at 64 μg/mL, read-out: LORA % inh; for MIC: read-out: LORA MIC
Vero cells = experiment: cells; conditions: Chlorocebus sabaeus; for cytotoxicity at 128 µg/mL: read-out: Vero cell (% inh); for IC50: read-out: Vero cell IC50
[3] = system: M. tuberculosis H37Rv (ATCC 27294); experiment: Microplate Alamar blue assay (MABA); assay type: cell-based, Mycobacterium tuberculosis; conditions: for SI (Selectivity Index): (Vero Cell IC50)/(M. tuberculosis MIC); for MIC: Mycobacterium tuberculosis
[4] = system: M. smegmatis (ATCC 12051); experiment: Microbroth dilution antibiotic susceptibility assay; assay type: cell-based; conditions: Mycolicibacterium smegmatis
M. tuberculosis H37Rv = system: M. tuberculosis H37Rv; parameters: method as in PMID 9145860; conditions: comparison values; cited from earlier work
[5] = ATCC19340, microbroth dilution, read-out: MIC M. diernhoferi
[6] = non-replicating persistent model
[7] = M. tuberculosis H37Rv (ATCC 27294), replicating, read-out: MABA MIC
[8] = ATCC12051, microbroth dilution, read-out: MIC M. smegmatis
[9] = wild-type M. tuberculosis H37Rv, Table 2 experiment, read-out: MABA MIC H37Rv

SMILES | MIC [1, 5] | inhibition at 64 µg/mL [2] | IC50 (Vero cells) | SI (Selectivity Index) [3] | MIC [3, 7] | MIC [4, 8] | also measured
CC(C)=CC1CC(C)C2CCC(C)c3c2c1c(C)c1nc(Cc2cnc[nH]2)oc31 (stereo not shown) [7a/7b] | 2 µg/mL (≈ 5.13 µM) | 92.5% | > 128 µg/mL | >9.7 | 13 µg/mL | 4 µg/mL (≈ 10.3 µM) | IC50 (VRE): 7.5 µg/mL (≈ 19.3 µM); IC50 (MRSA): 3 µg/mL (≈ 7.7 µM); MIC [2, 6]: 12 µg/mL; MIC ([2]; value given in μM): 31 µM; cytotoxicity at 128 µg/mL (Vero cells): 4%; MIC ([3]; MABA, value given in μM, read-out: MIC against M. tuberculosis H37Rv): 34 µM
CC(C)=C[C@@H]1C[C@H](C)[C@H]2CC[C@H](C)c3c(O)c(O)c(C)c1c32 [Compound 4, pseudopterosin G–J aglycone] | 8 µg/mL (≈ 26.6 µM) | 53.1% | 50 µg/mL (≈ 166 µM) |  | > 128 µg/mL | 8 µg/mL (≈ 26.6 µM) | IC50 (VRE; microbroth dilution): > 128 µg/mL; IC50 (MRSA; microbroth dilution): 88 µg/mL (≈ 293 µM)
CC(C)=C[C@@H]1C[C@H](C)[C@H]2CC[C@H](C)c3c2c1c(C)c1nccnc31 [Compound 5, Pseudopteroquinoxaline] | 64 µg/mL (≈ 200 µM) | 99.9% | 22 µg/mL (≈ 68.6 µM) | 0.8 | 29 µg/mL | 16 µg/mL (≈ 49.9 µM) | IC50 (VRE; microbroth dilution): > 128 µg/mL; IC50 (MRSA; microbroth dilution): > 128 µg/mL
COC(C)(C)C[C@@H]1C[C@H](C)[C@H]2CC[C@H](C)c3c2c1c(C)c1nccnc31 [Compound 6, 14,15-Dihydro-15-methoxy-pseudopteroquinoxaline] |  | 99.9% | 15 µg/mL (≈ 42.6 µM) | 0.2 | 84 µg/mL |  | 
CCCCCOc1c(C)c2c3c(c1O)[C@@H](C)CC[C@@H]3[C@@H](C)C[C@H]2C=C(C)C [Compound 8, 10-Pentoxy-pseudopterosin G–J Aglycone] | > 128 µg/mL | 35.1% | 49 µg/mL (≈ 132 µM) |  | > 128 µg/mL | > 128 µg/mL | IC50 (VRE; microbroth dilution): 22 µg/mL (≈ 59.4 µM); IC50 (MRSA; microbroth dilution): 47 µg/mL (≈ 127 µM)
COc1c(C)c2c3c(c1O)[C@@H](C)CC[C@@H]3[C@@H](C)C[C@H]2C=C(C)C [Compound 9] | 4 µg/mL (≈ 12.7 µM) | 99.7% | > 128 µg/mL | >4.3 | 30 µg/mL | 4 µg/mL (≈ 12.7 µM) | IC50 (VRE; microbroth dilution): 12 µg/mL (≈ 38.2 µM); IC50 (MRSA; microbroth dilution): 9 µg/mL (≈ 28.6 µM); MIC [2, 6]: 52 µg/mL; cytotoxicity at 128 µg/mL (Vero cells): 26%
COc1c(C)c2c3c(c1OC)[C@@H](C)CC[C@@H]3[C@@H](C)C[C@H]2C=C(C)C [Compound 10, 9,10-Dimethoxy-pseudopterosin G–J Aglycone] | > 64 µg/mL | 77.5% | 51 µg/mL (≈ 155 µM) |  | > 128 µg/mL | > 64 µg/mL | IC50 (VRE; microbroth dilution): 25 µg/mL (≈ 76.1 µM); IC50 (MRSA; microbroth dilution): > 128 µg/mL
COc1c(C)c2c3c(c1OS(=O)(=O)C(F)(F)F)[C@@H](C)CC[C@@H]3[C@@H](C)C[C@H]2C=C(C)C [Compound 11, 9-Trifluoromethylsulfonyloxy-10-methoxy-pseudopterosin G–J Aglycone] | > 64 µg/mL | 37.5% | 51 µg/mL (≈ 114 µM) |  | > 128 µg/mL | > 64 µg/mL | IC50 (VRE; microbroth dilution): > 128 µg/mL; IC50 (MRSA; microbroth dilution): > 128 µg/mL
COc1c(C)c2c3c(c1OC(=O)N(C)C)[C@@H](C)CC[C@@H]3[C@@H](C)C[C@H]2C=C(C)C [Compound 12, 9-Dimethylcarbamoyloxy-10-methoxy-pseudopterosin G–J Aglycone] |  | 80% | > 128 µg/mL |  | > 128 µg/mL |  | IC50 (VRE): 70 µg/mL (≈ 182 µM); MIC ([1]; ATCC19340, read-out: MIC M. diernhoferi): > 64 µg/mL; IC50 (MRSA): > 128 µg/mL; cytotoxicity at 128 µg/mL (Vero cells): 0%; MIC ([4]; ATCC12051, read-out: MIC M. smegmatis): 64 µg/mL (≈ 166 µM)
COc1ccc(CC=C(C)C)c(OC)c1O [Compound 14, 2,6-Dimethoxy-3-(3-methylbut-2-enyl)phenol] | 64 µg/mL (≈ 288 µM) | -4.7% | 44 µg/mL (≈ 198 µM) |  | > 128 µg/mL | 128 µg/mL (≈ 576 µM) | IC50 (VRE): > 128 µg/mL; IC50 (MRSA): > 128 µg/mL
COc1cc(CC=C(C)C)c(CC=C(C)C)c(OC)c1O [Compound 15, 2,6-Dimethoxy-3,4-bis(3-methylbut-2-enyl)phenol] | 8 µg/mL (≈ 27.5 µM) | 99.7% | 64 µg/mL (≈ 220 µM) | 1.1 | 59 µg/mL | 8 µg/mL (≈ 27.5 µM) | IC50 (VRE): 3 µg/mL (≈ 10.3 µM); IC50 (MRSA): 20 µg/mL (≈ 68.9 µM); MIC [2, 6]: 58 µg/mL
COc1c(O)c(OC)c(CC=C(C)C)c(CC=C(C)C)c1CC=C(C)C [Compound 16, 2,6-Dimethoxy-3,4,5-tris(3-methylbut-2-enyl)phenol] | 8 µg/mL (≈ 22.3 µM) | 79.7% | > 128 µg/mL | >2.3 | 56 µg/mL | > 128 µg/mL | IC50 (VRE): 3 µg/mL (≈ 8.37 µM); IC50 (MRSA): > 128 µg/mL; cytotoxicity at 128 µg/mL (Vero cells): 29%
COc1ccc(CC=C(C)C)c(OC)c1O[C@@H]1O[C@H](CO)[C@H](O)[C@H](O)[C@H]1O [Compound 20, 2,6-Dimethoxy-3-(3-methylbut-2-enyl)phenol-β-D-galactopyranoside] | > 128 µg/mL | -24.8% | 82 µg/mL (≈ 213 µM) |  | > 128 µg/mL | > 128 µg/mL | IC50 (VRE): > 128 µg/mL; IC50 (MRSA): > 128 µg/mL
CC(C)=C[C@@H]1C[C@H](C)[C@H]2CC[C@H](C)c3c2c1c(C)c1ocnc31 [Compound 22, isopseudopteroxazole] |  | 100% | 52 µg/mL (≈ 168 µM) | 3.6 | 14 µg/mL |  | MIC [2, 6]: 44 µg/mL
COc1ccccc1-c1nc2c(C)c3c4c(c2o1)C(C)CCC4C(C)CC3C=C(C)C (stereo not shown) [Compound 23] |  | 83.3% | 34 µg/mL (≈ 81.8 µM) |  | > 82 µg/mL |  | 
CC(C)=CC1CC(C)C2CCC(C)c3c2c1c(C)c1nc(-c2ccc(F)cc2)oc31 (stereo not shown) [Compound 24] |  | -19% | > 31 µg/mL |  | > 31 µg/mL |  | cytotoxicity at 128 µg/mL (Vero cells): 0%

SMILES | MIC [1, 5] | inhibition at 64 µg/mL [2] | IC50 (Vero cells) | SI (Selectivity Index) [3] | MIC [3, 7] | MIC [4, 8] | also measured
CC(C)=CC1CC(C)C2CCC(C)c3c2c1c(C)c1nc(C)oc31 (stereo not shown) [Compound 25] |  | 99% | 12 µg/mL (≈ 37.1 µM) | 0.8 | 15 µg/mL |  | 
CCC(C)c1nc2c(C)c3c4c(c2o1)C(C)CCC4C(C)CC3C=C(C)C (stereo not shown) [Compound 26] |  | 59.1% | 73 µg/mL (≈ 200 µM) |  | > 103 µg/mL |  | 
CSCCc1nc2c(C)c3c4c(c2o1)C(C)CCC4C(C)CC3C=C(C)C (stereo not shown) [Compound 27] |  | 90% | > 128 µg/mL | >1.2 | 107 µg/mL |  | cytotoxicity at 128 µg/mL (Vero cells): 0%
CC(C)=CC1CC(C)C2CCC(C)c3c2c1c(C)c1nc(Cc2ccccc2)oc31 (stereo not shown) [Compound 28] |  | 13.7% | 82 µg/mL (≈ 205 µM) |  | > 128 µg/mL |  | 
CC(C)=CC1CC(C)C2CCC(C)c3c2c1c(C)c1nc(C(C)O)oc31 (stereo not shown) [Compound 29] |  | 99.8% | 24 µg/mL (≈ 67.9 µM) | 0.5 | 53 µg/mL |  | 
COC(=O)CCc1nc2c(C)c3c4c(c2o1)C(C)CCC4C(C)CC3C=C(C)C (stereo not shown) [Compound 30] |  | 99.1% | 31 µg/mL (≈ 78.4 µM) |  | > 128 µg/mL |  | MIC [2, 6]: 62 µg/mL
CC(C)=CC1CC(C)C2CCC(C)c3c2c1c(C)c1nc(CCC(=O)O)oc31 (stereo not shown) [Compound 31] |  | 99.1% | 102 µg/mL (≈ 267 µM) | 1.1 | 95 µg/mL |  | 
CC(C)=CC1CC(C)C2CCC(C)c3c2c1c(C)c1nc(CCC(N)=O)oc31 (stereo not shown) [Compound 32] |  | 99% | 54 µg/mL (≈ 142 µM) | 1.9 | 29 µg/mL |  | 
CC(C)=CC1CC(C)C2CCC(C)c3c2c1c(C)c1nc(CC(N)=O)oc31 (stereo not shown) [Compound 33] |  | 97.1% | 45 µg/mL (≈ 123 µM) | 0.8 | 59 µg/mL |  | 
NNC(=O)c1ccncc1 [Isoniazid] |  |  |  |  | 0.03 µg/mL |  | LORA (% inh) in MIC column ([2]; % inhibition in parentheses, where the MIC exceeds the stated concentration): 65%; MIC [2, 6]: > 128 µg/mL; MIC [3, 9]: 0.03 µg/mL
O=[N+]([O-])c1cn2c(n1)OC[C@@H](OCc1ccc(OC(F)(F)F)cc1)C2 [PA824, reference compound] |  |  |  |  | 0.15 µg/mL |  | 
CO[C@H]1/C=C/O[C@@]2(C)Oc3c(C)c(O)c4c(O)c(c(/C=N/N5CCN(C)CC5)c(O)c4c3C2=O)NC(=O)/C(C)=C\C=C\[C@H](C)[C@H](O)[C@@H](C)[C@@H](O)[C@@H](C)[C@H](OC(C)=O)[C@@H]1C [Rifampin, reference compound] | 4 µg/mL (≈ 4.86 µM) |  |  |  | 0.04 µg/mL | 4 µg/mL (≈ 4.86 µM) | IC50 (VRE; microbroth dilution): 0.88 µg/mL (≈ 1.07 µM); MIC [2]: 0.93 µg/mL; MIC [3, 9]: 0.03 µg/mL
CN[C@H](CC(C)C)C(=O)N[C@H]1C(=O)N[C@@H](CC(N)=O)C(=O)N[C@H]2C(=O)N[C@H]3C(=O)N[C@H](C(=O)N[C@H](C(=O)O)c4cc(O)cc(O)c4-c4cc3ccc4O)[C@H](O)c3ccc(c(Cl)c3)Oc3cc2cc(c3O[C@@H]2O[C@H](CO)[C@@H](O)[C@H](O)[C@H]2O[C@H]2C[C@](C)(N)[C@H](O)[C@H](C)O2)Oc2ccc(cc2Cl)[C@H]1O [Vancomycin, reference compound] |  |  |  |  |  |  | IC50 (MRSA): 1.23 µg/mL (≈ 0.849 µM)
N[C@@H]1CON=C1O [cycloserine] |  |  |  |  |  |  | MIC of first and second line TB treatments (M. tuberculosis H37Rv): 122 to 490 µM
CC[C@@H](CO)NCCN[C@@H](CC)CO [ethambutol] |  |  |  |  |  |  | MIC of first and second line TB treatments (M. tuberculosis H37Rv): 4.6 to 9.2 µM
